From BindingDB's records for patent US20230312522 (Sage Therapeutics, 2023)

Each compound was assayed against Cholesterol 24-hydroxylase (Homo sapiens, UniProt Q9Y6A2) (assay: CYP46A1 Enzyme Assay).
Procedure: Briefly, in a 384-well plate format, 10 uL per well of an enzyme-substrate mixture of CYP46A1 (5 uM final concentration) and Testosterone ([…]) were dispensed to wells containing test compound. For CYP46A1 titration, 5 uL per well of serially diluted CYP46A1 (concentrations including 10 uM, 5 uM, and 2.5 uM) and Testosterone ([…]) were dispensed. For Testosterone titration, 5 uL per well of serially diluted Testosterone (concentrations including 10 uM, 5 uM, and 2.5 uM) and CYP46A1 (concentration of 5 uM) were dispensed. The plates were centrifuged at 1000 rpm for 30 seconds, and then sealed and incubated at 37 C. for 30 minutes. The plate was removed from the incubator, and then 10 uL per well of NADPH-generating system were dispensed to initiate the reaction. The plates were incubated at 37 C. for 15 minutes, added with 80 uL per well of 100% methanol consisting 1 ng/ml diclofenac as internal standard, and then transferred for HPLC-MS.

Cholesterol 24-hydroxylase, sequence (Q9Y6A2 whole entry): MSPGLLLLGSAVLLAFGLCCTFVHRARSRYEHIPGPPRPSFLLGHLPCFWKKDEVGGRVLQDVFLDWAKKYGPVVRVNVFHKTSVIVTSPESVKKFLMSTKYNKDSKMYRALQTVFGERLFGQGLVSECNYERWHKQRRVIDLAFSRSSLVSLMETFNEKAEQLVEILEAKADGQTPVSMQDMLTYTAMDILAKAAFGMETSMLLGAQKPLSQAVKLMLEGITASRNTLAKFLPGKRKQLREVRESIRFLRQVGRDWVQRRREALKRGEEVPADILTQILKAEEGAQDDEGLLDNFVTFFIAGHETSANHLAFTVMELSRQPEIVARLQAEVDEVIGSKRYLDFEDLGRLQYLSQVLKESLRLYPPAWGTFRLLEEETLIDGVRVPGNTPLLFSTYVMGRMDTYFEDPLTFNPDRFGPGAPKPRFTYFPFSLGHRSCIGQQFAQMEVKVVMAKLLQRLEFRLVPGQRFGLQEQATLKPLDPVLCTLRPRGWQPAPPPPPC

IC50 [µM] | SMILES
> 1 | O=C(c1cccnc1-c1ccncn1)N1CCC(F)(c2ccccc2)CC1 [US20230312522, Compound 8]
< 0.1 | O=C(c1cccnc1-c1ccncn1)N1CCC(F)([C@H](O)c2ccc(C(F)(F)F)cc2)CC1 [US20230312522, Compound 13]
< 0.1 | O=C(c1cccnc1-c1ccncn1)N1CCC(F)([C@@H](O)c2ccc(C(F)(F)F)cc2)CC1 [US20230312522, Compound 14]
< 0.1 | O=C(c1cccnc1-c1ccncn1)N1CCC(F)(Cc2ccc(Cl)cn2)CC1 [US20230312522, Compound 18]
< 0.1 | O=C(c1cccnc1-c1ccncn1)N1CCC(F)(Cc2ccc(F)cc2F)CC1 [US20230312522, Compound 19]
< 0.1 | O=C(c1cccnc1-c1ccncn1)N1CCC(F)(Cc2cc(F)cc(F)c2)CC1 [US20230312522, Compound 20]
< 0.1 | O=C(c1cccnc1-c1ccncn1)N1CCC(F)(Cc2ccc(C(F)(F)F)cn2)CC1 [US20230312522, Compound 22]
< 0.1 | O=C(c1cccnc1-c1ccncn1)N1CCC(F)(Cc2ccc(C(F)(F)F)nc2)CC1 [US20230312522, Compound 23]
< 0.1 | O=C(c1cccnc1-c1ccncn1)N1CCC(F)(Cc2cccc(C(F)(F)F)n2)CC1 [US20230312522, Compound 24]
< 0.1 | O=C(c1cccnc1-c1ccncn1)N1CCC(F)(Cc2c(F)cc(F)cc2F)CC1 [US20230312522, Compound 26]
< 0.1 | O=C(c1cccnc1-c1ccncn1)N1CCC(F)(Cc2ccc(C(F)(F)F)cc2F)CC1 [US20230312522, Compound 28]
< 0.1 | O=C(c1cccnc1-c1ccncn1)N1CCC(F)(Cc2ccc(Cl)cc2)CC1 [US20230312522, Compound 29]
< 0.1 | C[C@H](c1cc(F)cc(F)c1)C1(F)CCN(C(=O)c2cccnc2-c2ccncn2)CC1 [US20230312522, Compound 31]
< 0.1 | C[C@@H](c1cc(F)cc(F)c1)C1(F)CCN(C(=O)c2cccnc2-c2ccncn2)CC1 [US20230312522, Compound 32]
< 0.1 | C[C@H](c1ccc(C(F)(F)F)cc1)C1(F)CCN(C(=O)c2cccnc2-c2ccncn2)CC1 [US20230312522, Compound 33]
< 0.1 | C[C@@H](c1ccc(C(F)(F)F)cc1)C1(F)CCN(C(=O)c2cccnc2-c2ccncn2)CC1 [US20230312522, Compound 34]
< 0.1 | O=C(c1cccnc1-c1ccncc1)N1CCC(F)(Cc2ccc(C(F)(F)F)nc2)CC1 [US20230312522, Compound 35]
< 0.1 | O=C(c1cccnc1-c1ccncc1)N1CCC(F)(Cc2ccc(Cl)cn2)CC1 [US20230312522, Compound 38]
< 0.1 | O=C(c1cccnc1-c1ccncn1)N1CCC(F)(Cc2cc(C(F)(F)F)c(Cl)cn2)CC1 [US20230312522, Compound 39]
< 0.1 | Cc1ccc(CC2(F)CCN(C(=O)c3cccnc3-c3ccncc3)CC2)nc1 [US20230312522, Compound 43]
> 1 | O=C(c1cccnc1-c1ccncc1)N1CCC(F)(Cc2cnccn2)CC1 [US20230312522, Compound 45]
< 0.1 | O=C(c1cccnc1-c1ccncn1)N1CCC(F)(Cc2ccc(Cl)nc2)CC1 [US20230312522, Compound 46]
< 0.1 | O=C(c1cccnc1-c1ccncc1)N1CCC(F)(Cc2ccc(Cl)nc2)CC1 [US20230312522, Compound 47]
< 0.1 | O=C(c1cccnc1-c1ccncn1)N1CCC(F)(Cc2ccc(CF)nc2)CC1 [US20230312522, Compound 51]
< 0.1 | Cc1cnc(CC2(F)CCN(C(=O)c3cccnc3-c3ccncc3)CC2)cn1 [US20230312522, Compound 52]
< 0.1 | O=C(c1cccnc1-c1ccncc1)N1CCC(F)(Cc2ccc(CF)nc2)CC1 [US20230312522, Compound 54]
< 0.1 | O=C(c1cccnc1-c1ccncc1)N1CCC(F)(Cc2ccc(C(F)F)nc2)CC1 [US20230312522, Compound 55]
> 1 | O=C(c1cccnc1-c1ccncn1)N1CCC(F)(Cc2ncc(C(F)(F)F)cn2)CC1 [US20230312522, Compound 56]
< 0.1 | Cc1ccc(CC2(F)CCN(C(=O)c3cccnc3-c3ccncc3)CC2)cn1 [US20230312522, Compound 57]
